Laboratory results published in paper PMC6571863, “Bioassay-Guided Isolation of Triterpenoids as α-Glucosidase Inhibitors from Cirsium setosum” (Molecules, 2019).

System: α-Glucosidase enzyme (from Saccharomyces cerevisiae)
Test: α-glucosidase inhibitory assay (p-NPG substrate, spectrophotometric)
Type: biochemical
Conditions: mean SD (n = 3); for Inhibition (%): tested concentration of all samples 100 μM; for IC50: α-glucosidase, p-NPG substrate
Protocol: A total of 200 μL of reaction mixture, containing 70 μL of 0.1 M phosphate buffer (pH 6.8), 10 μL of 1.0 mg/mL reduced glutathione solution, and 10 μL of the sample solution (test concentration at 0.1 mg/mL), was added to each well of a 96-well plate, followed by the addition of 20 μL of 0.5 U/mL α-glucosidase solution. The plate was incubated at 37 °C for 15 min, and then 20 μL of p-Nitrophenyl α-D-glucopyranoside substrate was added to the mixture to start the reaction. The reaction mixture was incubated at 37 °C for 30 min, and then 70 μL of 0.1 M Na2CO3 solution was added to the mixture to terminate the reaction. All samples were analyzed in triplicate with three different concentrations near the IC50 values. The absorbance (A) was immediately recorded at 400 nm, using a spectrophotometrical method to estimate the enzymatic activity. The inhibition percentage was calculated by the following equation: Inhibitory rate (%) = [1 − (Atest − Ablank)/(control Atest − control Ablank)] × 100%.
Here, Atest represents the absorbance value of the experimental sample, Ablank represents the absorbance value of sample blank, control Atest represents the absorbance value of the control, and control Ablank represents the absorbance value of the blank.

SMILES	Inhibition (%)	IC50 [µM]
C[C@H]1O[C@H](O[C@H]2[C@H](O)[C@@H](O)[C@@H](O[C@H]3[C@H](O)[C@@H](O)C(O)O[C@@H]3CO)O[C@@H]2CO)[C@H](O)[C@@H](O)[C@@H]1N[C@H]1C=C(CO)[C@@H](O)[C@H](O)[C@H]1O (some centres unmarked) [Acarbose, acarbose, reference compound]	78.35 ± 3.41	
CC1C(COO)=CCC2(C)CCC3(C)C(CCC4C5(C)CCC(O)C(C)(C)C5CCC43C)C12 (stereo not drawn) [Compound 1, 3β-hydroxy-30-hydroperoxy-20-taraxastene]	99.46 ± 1.04	18.3 ± 1.27
COC1C=C(C)C(C)C2C3CCC4C5(C)CCC(O)C(C)(C)C5CCC4(C)C3(C)CCC12C (stereo not drawn) [Compound 2, 3β-hydroxy-22α-methoxy-20-taraxastene]	93.29 ± 0.74	27 ± 0.89
C[C@@H]1C=C[C@H](O)[C@]2(C)CC[C@]3(C)[C@H](CCC4[C@@]5(C)CC[C@H](O)C(C)(C)C5CC[C@]43C)C12 (stereo partly drawn) [Compound 3, 30-nor-3β,22α-dihydroxy-20-taraxastene]	70.34 ± 2.73	44.6 ± 1.39
CC1=CC(O)C2(C)CCC3(C)C(CCC4C5(C)CCC(O)C(C)(C)C5CCC43C)C2C1C (stereo not drawn) [Compound 4, 3β,22α-dihydroxy-20-taraxastene]	94.95 ± 1.67	17.5 ± 1.42
CC1=CC(=O)[C@]2(C)CC[C@]3(C)[C@H](CCC4[C@@]5(C)CCC(=O)C(C)(C)C5CC[C@]43C)C2[C@@H]1C (some centres unmarked) [Compound 5, 20-taraxastene-3,22-dione]	60.78 ± 5.81	68.9 ± 1.82
CC(=O)O[C@H]1CC[C@@]2(C)C(CC[C@]3(C)C2CC[C@@H]2C4[C@H](C)C(C)=CC(=O)[C@]4(C)CC[C@]23C)C1(C)C (stereo partly drawn) [Compound 6, 3β-acetoxy-20-taraxasten-22-one]	63.06 ± 7.44	54.2 ± 2.25
CC1=CC(=O)C2(C)CCC3(C)C(CCC4C5(C)CCC(O)C(C)(C)C5CCC43C)C2C1C (stereo not drawn) [Compound 7, 3β-hydroxy-20-taraxasten-22-one]	95.59 ± 2.34	22.7 ± 0.25
C[C@@H]1C=CC[C@]2(C)CC[C@]3(C)[C@H](CCC4[C@@]5(C)CC[C@H](O)C(C)(C)C5CC[C@]43C)C12 (stereo partly drawn) [Compound 8, 30-nor-3β-hydroxy-20-taraxastene]	59.19 ± 3.81	80.1 ± 2.13
